Assay results from patent publication EP4740932A2, “COSMETIC COMPOSITION FOR SKIN IMPROVEMENT AND PHARMACEUTICAL COMPOSITION FOR PREVENTING OR TREATING SKIN DAMAGE, EACH CONTAINING HONOKIOL AND POLYOL” (Cosmax, Inc., priority 2023, dated 2025).

Key:
FBN = test: qRT-PCR of fibronectin production factor in UVB-irradiated Hs68 cells; assay type: cell-based; conditions: Hs68, UVB 25 mJ/cm^2, 1 ppm, 24 hours; compared with RA, EGCG, retinol
Experimental: (§1) Specifically, Hs68 cells, which are skin dermal layer cells, were irradiated with UVB (ultraviolet-B) having a 25 mJ/cm^2 intensity, and then treated with RA, EGCG, retinol, and honokiol, 1 ppm each, for 24 hours.
(§2) The mRNA expression levels of ELN1, a factor associated with elastin production promotion, and FBN, a factor associated with fibronectin production promotion, were then measured using qRT-PCR analysis, and the levels of actin expression from the UVB non-irradiated group were converted and compared.

HaCaT cells = test: MTT cytotoxicity evaluation on skin keratinocytes; assay type: cell-based; conditions: HaCaT (skin stratum corneum cells), 0.1, 0.5, 1 and 5 ppm, 24 hours, at concentrations of 5 ppm or less
Experimental: (§3) Toxicity assessments of honokiol on skin epidermis and dermal cells were performed. Specifically, HaCaT cells, which are skin keratinocytes, and Hs68 cells, which are skin dermis cells, were cultured in a 96 well plate at a concentration of 2 X […] and cultured in a medium including FBS ([…]) and antibiotics (Antibiotic antibiotic) at 37°C and 5% CO2 for 24 hours, and then further cultured by treating the medium including only antibiotics with 0.1, 0.5, 1, and 5 ppm for each concentration on the next day. After 24 hours, the toxic concentration of the honokiol material on skin cells was determined by replacing it with medium containing MTT tetrazolum (Sigma-aldrich, St. Lous, USA) and by reacting at 37°C for 4 hours to evaluate the cellular metabolic activity.

filaggrin (FLG) = test: qRT-PCR of filaggrin in HaCaT cells; assay type: cell-based; conditions: 24 hours
Experimental: (§4) Specifically, HaCaT cells, which are skin stratum corneum cells, were treated with retinol and honokiol at 0.1 and 1 ppm, respectively, for 24 hours.
(§5) Subsequently, through qRT-PCR analysis, the mRNA expression of filaggrin (FLG), a moisturizing component-related factor present in keratinocytes constituting the skin barrier, and the CLDN1 gene, a factor related to the binding of the skin barrier, were measured and compared based on the β-actin expression level.

Hs68 cells = test: MTT cytotoxicity evaluation on skin dermis cells; assay type: cell-based; conditions: Hs68 (skin dermis cells), 0.1, 0.5, 1 and 5 ppm, 24 hours, at concentrations of 5 ppm or less
Experimental: as §3

TSLP = test: qRT-PCR of inflammation-related factor in Poly I:C/IL-4 stimulated HaCaT cells; assay type: cell-based; conditions: 10 µg/ml Poly I:C and 10 µg/ml IL-4, 1 ppm, 4 hours
Experimental: Specifically, HaCaT cells, which are skin stratum corneum cells, were treated (+) with 10 µg/ml of Poly I:C and 10 µg/ml of IL-4 protein, which are inflammatory response inducing substances, and prepared as an experimental group in which 1 µM (Dexa) of dexamethasone (DEXA), retinol, and honokiol, which are […], were treated for 4 hours at 0.1 and 1 ppm, respectively. The untreated group (-) was prepared as a negative control.
Afterwards, the expression level of the TSLP gene, an inflammation-related factor expressed in skin keratinocytes, was measured through qRT-PCR analysis, converted based on the expression level of ectin, and compared.

COL1A1 = test: qRT-PCR of collagen production promotion factor in UVB-irradiated Hs68 cells; assay type: cell-based; conditions: Hs68, UVB 25 mJ/cm^2, 1 ppm, 24 hours; relative to UVB non-irradiated group; compared with RA, EGCG, retinol
HAS3 = test: qRT-PCR of hyaluronic acid synthase factor in HaCaT cells; assay type: cell-based; conditions: 24 hours
Experimental: as §4
(§6) The mRNA expression levels of the AQP3 gene, which is a factor related to the migration of moisture present in the dermis, and the HAS3 gene, which is a factor related to hyaluronic acid synthase, were then measured through qRT-PCR analysis, and the β-actin expression levels were converted and compared.

[1] = HPLC potency analysis after storage; assay type: physicochemical; conditions: harsh environments of low temperature, high temperature, and cycle
Experimental: Honokiol was dissolved in BG and MCT at a concentration of 5 wt %, and high-performance liquid chromatography (HPLC) was performed to observe whether precipitates were formed at 4°C, 25°C, 45°C, 50°C, and sunlight, and to analyze potency.

CLDN1 = test: qRT-PCR of skin barrier binding factor in HaCaT cells; assay type: cell-based; conditions: 1 ppm, 24 hours, versus control group
Experimental: as §4, §5

MMP-1 = test: qRT-PCR of collagen degradation enzyme factor in UVB-irradiated Hs68 cells; assay type: cell-based; conditions: Hs68, UVB 25 mJ/cm^2, 1 ppm, 24 hours; relative to UVB non-irradiated group
Experimental: It was determined whether honokiol increases the amount of skin collagen. Specifically, Hs68 cells, which are skin dermal layer cells, were irradiated with 25 mJ/cm^2 intensity of UVB (ultraviolet B), and then treated with RA (retinoic acid), EGCG (epigallocatechin gallate), retinol, and honokiol at a concentration of 1 ppm for 24 hours, respectively.
The mRNA expression of the collagen production promotion factor COL1A1 and the collagen degradation enzyme factor MMP-1 gene was measured through qRT-PCR analysis and converted based on the actin expression, and the relative values for the expression of the UVB non-irradiated group were calculated and compared.
The collagen production amount was compared in the same manner as in Example 2-1, and the treatment sample was changed to a honokiol solution dissolved in RA (retinoic acid), retinol, DMSO (dimethyl sulfoxide), a honokiol solution dissolved in BG, and a honokiol solution dissolved in PG (propylene glycol).
In Example 2-1, a 5% (w/w) solution was prepared as a sample to confirm stability in a high concentration dissolved state, whereas a honokiol solution for treating cells was prepared at a concentration of 1 mg/ml, and the honokiol alone component treated in cells was performed to be 1 ppm.

AQP3 = test: qRT-PCR of moisture migration factor in HaCaT cells; assay type: cell-based; conditions: 24 hours
Experimental: as §4, §6

ELN1 = test: qRT-PCR of elastin production factor in UVB-irradiated Hs68 cells; assay type: cell-based; conditions: Hs68, UVB 25 mJ/cm^2, 1 ppm, 24 hours; compared with RA, EGCG, retinol
Experimental: as §1, §2

[2] = DPPH test of antioxidant activity; assay type: biochemical; conditions: 10 and 100 ppm, room temperature, 30 minutes; compared to retinol
Experimental: It was confirmed by the DPPH test whether honokiol exerts antioxidant activity.
Specifically, the DPPH solution was treated with Ascorbic Acid (AA), retinol, and honokiol at 10 and 100 ppm, respectively, at room temperature for 30 minutes. The absorbance was measured at 517 nm to show antioxidant activity as the ratio of the decrease in absorbance to the control. At this time, ascorbic acid, an antioxidant, was used as a control group for determining the absorbance reduction ratio.

[3] = Solvent selection: dissolving 5 wt % honokiol in water, BG, MCT; assay type: physicochemical
Source text: Honokiol is a poorly soluble component and has low solubility in water, so it has the property of being dissolved in an organic solvent. To stabilize the cosmetic composition including honokiol at a high concentration of 5 wt %, three types of solvents corresponding to water, Butylene Glycol (BG), and medium-chain triglyceride (MCT) oil were applied to confirm the result.

[4] = 0.1 and 1 ppm, overall versus retinol

SMILES: C=CCc1ccc(O)c(-c2ccc(O)c(CC=C)c2)c1 [honokiol]
- FBN mRNA expression level (FBN): highest expression level among the UV-irradiated groups but also showed a higher expression level than the UV-unirradiated group
- cytotoxicity (HaCaT cells): did not cause cytotoxicity
- FLG mRNA expression (filaggrin (FLG); [4]): higher expression than the retinol-treated group overall
- FLG mRNA expression (filaggrin (FLG); 1 ppm): significantly increased the expression of the FLG gene
- cytotoxicity (Hs68 cells): did not cause cytotoxicity
- TSLP gene expression amount (TSLP): significantly reducing the expression amount of the TSLP gene
- COL1A1 mRNA expression (collagen production) (COL1A1): higher collagen production than the UVB-only irradiated group, and showed the highest collagen production among all UVB irradiated groups
- HAS3 mRNA expression level (HAS3; [4]): higher overall expression than the retinol-treated group
- HAS3 mRNA expression level (HAS3; 1 ppm): significantly increased the expression of related genes
- potency maintenance (stability of the material) [1]: maintained its potency well
- CLDN1 mRNA expression level (CLDN1): significantly increased the expression level of the CLDN1 gene compared to that of the control group
- MMP-1 mRNA expression (collagen degrading enzyme production) (MMP-1): lower amount of collagen degrading enzyme production than the UVB-only irradiation group
- AQP3 mRNA expression level (AQP3; [4]): higher overall expression than the retinol-treated group
- AQP3 mRNA expression level (AQP3; 1 ppm): significantly increased the expression of related genes
- ELN1 mRNA expression level (ELN1): highest expression level among the UV-irradiated groups but also showed a higher expression level than the UV-unirradiated group
- antioxidant activity (DPPH, decrease in absorbance at 517 nm) [2]: remarkably high antioxidant activity compared to retinol
- solubility ([3]; 5 wt % honokiol in BG): well soluble
- solubility ([3]; 5 wt % honokiol in MCT): well soluble
- solubility ([3]; 5 wt % honokiol in water): low
